Results reported in US20240398781A1, “SPIROCYCLIC CYCLIC MODULATORS OF CHOLESTEROL BIOSYNTHESIS AND THEIR USE FOR PROMOTING REMYELINATION” (GENENTECH, INC., priority 2021, published 2024).

Legend:
[1] = target: human EBP (Homo sapiens (Human), UniProt Q15125); assay: Competition binding assay (SPA, [3H]-Ifenprodil) to determine compound affinity to EBP; conditions: [3H]-Ifenprodil 10 nM, HEK293 membrane overexpressing human EBP, Ki=IC50/(1+[L]/Kd); read-out: hEBP SPA Ki
Description: Membrane preparation: To examine compound binding affinity to EBP, human EBP was overexpressed in human embryonic kidney 293 cells. Cell pellet was lysed in 10 times weight binding buffer (50 mM Tris, 5 mM MgCl2, 0.1 mM EDTA, lx protease inhibitor cocktail, pH 7.5) on ice by using a dounce homogenizer. The solution was centrifuged at 25,000 g for 50 min at 4° C. The membrane pellet was re-suspended in binding buffer and run through a 25 5/8 gauge needle. After checking the concentration by Bradford assay, the whole cell membrane solution was adjusted to 20 mg/mL and stored at −80° C.
This binding solution was centrifuged at 400 g for 5 minutes to collect the bead/membrane mixture. After re-suspending the pellet in binding buffer at the same calculated volume with 0.01% BSA (Sigma A1933), the bead/membrane mixture was added in 384-well low-binding surface plate (PerkinElmer Cat #6057480) at 25 μl/well. Radioligand at different concentrations with and without the non-radio-labeled same ligand 5 uM (for nonspecific and total signal, respectively) was added to bring final volume to 50 µl/well with DMSO concentration at 0.1%. At equilibrium (3 hours after ligand addition), radiometric signal CPM was counted by using a Microbeta2 microplate counter (Perkinelmer).
Competition binding assay to determine compound affinity: The same conditions of the radioligand Kd study were used for compound single dose percentage inhibition and equilibrium dissociation constant Ki examinations, except 50 nL compound DMSO stock was pre-added in 384-well low-binding surface plate (PerkinElmer Cat #6057480) by Echo 550 (Labcyte) to reach the final concentration for single dose test at 1 uM, and dose response test from 0.06 nM to 5 uM (8 dose, 5 times dilution). A pre-incubated bead/membrane mixture was added in compound plate at 0.3 mg beads and […] membrane per well. […] At equilibrium (3 hours after ligand addition), radiometric signal was counted as described above. The percentage inhibition of compound at each testing concentration was calculated by normalizing each condition's CPM readout to full block (5 uM non-radiolabeled ligand) and non-block (DMSO) control conditions. Compound binding inhibition IC50 was determined by nonlinear regression fitting of percentage inhibition plot against compound concentration. Compound Ki was calculated from the equation Ki=IC50/(1+[L]/Kd), which [L] was radioligand concentration used in assay. All tests had N bigger or equal to 2.

[2] = test system: EBP (zymostenol accumulation in EpiSC-derived OPCs); assay: GC/MS-based sterol profiling, zymostenol accumulation in OPCs; format: cell-based, mouse; conditions: Mus musculus, 24 h, EpiSC-derived OPCs, 24 hr treatment, 8 doses from 0.15 nM to 333 nM; read-out: Zymostenol GCMS EC50
Outline: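 EpiSC-derived OPCs (100,000/well) were treated 24 h in N2B27 without growth factors. Sterols were TMS-derivatized and analysed by GC/MS full-scan EI, quantified against cholesterol-d7. Zymostenol was normalized to the level after 24 h with 100 nM positive control reference.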

[3] = target: human emopamil binding protein and human 7-dehydrocholesterol reductase co-expressing cells (hEBP-DHCR7 membrane) (Homo sapiens (Human), UniProt Q15125); assay: Radioligand filter binding assay on hEBP-DHCR7 membrane; conditions: [3H]-(S)-6-(2-Methyl-3-(6-(trifluoromethyl)pyridin-3-yl)propyl)-2-thia-6-azaspiro[3.4]octane 2,2-dioxide radioligand, HEK293 membrane co-expressing hEBP and hDHCR7
Outline: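 HEK293 cells transiently co-expressing human EBP and DHCR7 supplied whole-cell membranes (10 μg/well), incubated 3 h at 22 °C with [3H]-labelled spiro-octane dioxide ligand (added at 25 nM) and compound (0.06-5000 nM final, 8 doses, n=2). Bound ligand was collected on PEI-treated GF/B filters and counted by scintillation. IC50 was Hill-fitted from % inhibition and reported as Ki.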

[4] = test system: EpiSC-derived OPCs; assay: In vitro phenotypic screening of OPCs (MBP staining, high-content imaging); format: cell-based, mouse; conditions: Mus musculus, 72 h, percentage of MBP+ oligodendrocytes, 3 days, 0.5 nM to 1000 nM; read-out: OPC EC50
Outline: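 EpiSC-derived mouse OPCs seeded at 150,000/cm^2 on laminin in N2B27 without growth factors, treated 3 days at 37° C. with compound (8 points, 1000 nM to 0.5 nM). Fixed cells stained for MBP and DAPI and imaged; percentage of MBP+ oligodendrocytes fitted by Hill equation for EC50.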

human EBP, sequence (Q15125 whole entry): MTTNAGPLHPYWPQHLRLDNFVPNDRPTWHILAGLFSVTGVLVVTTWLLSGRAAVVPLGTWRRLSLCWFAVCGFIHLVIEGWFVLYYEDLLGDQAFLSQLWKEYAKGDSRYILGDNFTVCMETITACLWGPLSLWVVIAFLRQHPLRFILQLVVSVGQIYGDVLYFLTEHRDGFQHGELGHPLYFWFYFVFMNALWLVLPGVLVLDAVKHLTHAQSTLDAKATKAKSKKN
human emopamil binding protein and human 7-dehydrocholesterol reductase co-expressing cells (hEBP-DHCR7 membrane), sequence (Q15125 whole entry): as above

| Ki [3] | SMILES | Ki [1] | EC50 [2] | EC50 [4] |
| --- | --- | --- | --- | --- |
| 33.1 nM | CC(C)n1nc(C(F)(F)F)cc1[C@@H]1CC[C@@H](N2CCC3(C2)CS(=O)(=O)C3)C1 (single isomer, unassigned) [10D*] | 43 nM | 44 nM | – |
| – | CC(C)n1nc(-c2ccc(C(F)(F)F)nc2)nc1[C@@H]1CC[C@@H](N2CCC3(C2)CS(=O)(=O)C3)C1 (single isomer, unassigned) [17C*] | 18 nM | 2.9 nM | 13 nM |
| 11 nM | Cc1cc(C(F)(F)F)cnc1[C@H]1CC[C@@H](N2CCC3(C2)CS(=O)(=O)C3)CC1 [Compound 47A, 6-((1s,4s)-4-(3-methyl-5-(trifluoromethyl)pyridin-2-yl)cyclohexyl)-2-thia-6-azaspiro[3.4]octane 2,2-dioxide] | 11 nM | 9.1 nM | – |

| SMILES | Ki [3] | Ki [1] | EC50 [2] | EC50 [4] |
| --- | --- | --- | --- | --- |
| CC(C)n1nc(-c2ccc(C(F)(F)F)nc2)nc1[C@@H]1CC[C@H](N2CCC3(C2)CS(=O)(=O)C3)C1 (single isomer, unassigned) [17A*] | 24 nM | 22 nM | 2.1 nM | – |
